Assay results from the supplement of paper PMC10733146.

What was measured:
Assay in all cases: viability relative to DMSO control (fraction); higher = less drug effect (more viable cells)
Details in all cases: 48 h
[1] = system: primary ALL patient cells (S048)
How it was run: (§1)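 Viability was measured as CellTiter-Glo luminescence relative to the median of 16 inner DMSO wells. Primary mononuclear tumour cells, fresh or cryopreserved, were Ficoll-isolated from blood or bone marrow or taken from processed lymph node. They were seeded at 4 × 10^4 cells per well into 384-well plates holding pre-plated compounds at five concentrations, one well each, and kept in RPMI-1640 with penicillin/streptomycin, L-glutamine and human serum at 37 °C and 5% CO2 for 48 h.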

[2] = system: primary ALL patient cells (S088)
How it was run: as §1

[3] = system: primary AML patient cells (S009)
How it was run: as §1

[4] = system: primary AML patient cells (S056)
How it was run: as §1

[5] = system: primary AML patient cells (S060)
How it was run: as §1

[6] = system: primary AML patient cells (S071)
How it was run: as §1

[7] = system: primary AML patient cells (S072)
How it was run: as §1

[8] = system: primary AML patient cells (S079)
How it was run: as §1

[9] = system: primary B-PLL patient cells (S016)
How it was run: as §1

[10] = system: primary BL patient cells (S005)
How it was run: as §1

[11] = system: primary CLL patient cells (S031)
How it was run: as §1

[12] = system: primary DLBCL patient cells (S082)
How it was run: as §1

[13] = system: primary FL patient cells (S022)
How it was run: as §1

[14] = system: primary FL patient cells (S087)
How it was run: as §1

[15] = system: primary MCL patient cells (S041)
How it was run: as §1

[16] = system: primary MCL patient cells (S053)
How it was run: as §1

[17] = system: primary MCL patient cells (S063)
How it was run: as §1

[18] = system: primary MCL patient cells (S068)
How it was run: as §1

[19] = system: primary T-PLL patient cells (S008)
How it was run: as §1

With `Cc1sc2c(c1C)C(c1ccc(Cl)cc1)=N[C@@H](CC(=O)Nc1ccc(O)cc1)c1nnc(C)n1-2` [OTX015] the viability ([1]; 0.016 µM) was 1.1, the viability ([1]; 0.08 µM) was 1.04 and the viability ([1]; 0.4 µM) was 0.552. For the same molecule, the viability ([1]; 2 µM) was 0.305, the viability ([1]; 10 µM) was 0.241 and the viability ([2]; 0.016 µM) was 0.862. It also gave a viability ([2]; 0.08 µM) of 0.726, a viability ([2]; 0.4 µM) of 0.448 and a viability ([2]; 2 µM) of 0.394. It also gave a viability ([2]; 10 µM) of 0.325, a viability ([3]; 0.016 µM) of 0.859 and a viability ([3]; 0.08 µM) of 0.752. It also gave a viability ([3]; 0.4 µM) of 0.6, a viability ([3]; 2 µM) of 0.489 and a viability ([3]; 10 µM) of 0.457. It also gave a viability ([4]; 0.016 µM) of 0.932, a viability ([4]; 0.08 µM) of 0.885 and a viability ([4]; 0.4 µM) of 0.631. It also gave a viability ([4]; 2 µM) of 0.255, a viability ([4]; 10 µM) of 0.235 and a viability ([5]; 0.016 µM) of 1.01. The viability ([5]; 0.08 µM) was 1.03, the viability ([5]; 0.4 µM) was 0.775 and the viability ([5]; 2 µM) was 0.501. It also gave a viability ([5]; 10 µM) of 0.344, a viability ([6]; 0.016 µM) of 0.988 and a viability ([6]; 0.08 µM) of 1.08. For the same molecule, the viability ([6]; 0.4 µM) was 0.994, the viability ([6]; 2 µM) was 0.829 and the viability ([6]; 10 µM) was 0.722. It also gave a viability ([7]; 0.016 µM) of 0.806, a viability ([7]; 0.08 µM) of 0.826 and a viability ([7]; 0.4 µM) of 0.604. For the same molecule, the viability ([7]; 2 µM) was 0.375, the viability ([7]; 10 µM) was 0.364 and the viability ([8]; 0.016 µM) was 0.812. It also gave a viability ([8]; 0.08 µM) of 0.757, a viability ([8]; 0.4 µM) of 0.568 and a viability ([8]; 2 µM) of 0.44. The viability ([8]; 10 µM) was 0.403, the viability ([9]; 0.016 µM) was 1.06 and the viability ([9]; 0.08 µM) was 1.15. The viability ([9]; 0.4 µM) was 0.891, the viability ([9]; 2 µM) was 0.711 and the viability ([9]; 10 µM) was 0.687. It also gave a viability ([10]; 0.016 µM) of 0.977, a viability ([10]; 0.08 µM) of 0.911 and a viability ([10]; 0.4 µM) of 0.818. It also gave a viability ([10]; 2 µM) of 0.758, a viability ([10]; 10 µM) of 0.802 and a viability ([11]; 0.016 µM) of 0.983. It also gave a viability ([11]; 0.08 µM) of 0.927, a viability ([11]; 0.4 µM) of 0.77 and a viability ([11]; 2 µM) of 0.52. For the same molecule, the viability ([11]; 10 µM) was 0.405, the viability ([12]; 0.016 µM) was 0.872 and the viability ([12]; 0.08 µM) was 0.674. It also gave a viability ([12]; 0.4 µM) of 0.244, a viability ([12]; 2 µM) of 0.116 and a viability ([12]; 10 µM) of 0.0851. The viability ([13]; 0.016 µM) was 0.981, the viability ([13]; 0.08 µM) was 0.971 and the viability ([13]; 0.4 µM) was 0.955. The viability ([13]; 2 µM) was 0.897, the viability ([13]; 10 µM) was 0.874 and the viability ([14]; 0.016 µM) was 1.02. For the same molecule, the viability ([14]; 0.08 µM) was 1.01, the viability ([14]; 0.4 µM) was 0.913 and the viability ([14]; 2 µM) was 0.866. It also gave a viability ([14]; 10 µM) of 0.805, a viability ([15]; 0.016 µM) of 1.01 and a viability ([15]; 0.08 µM) of 1.01. It also gave a viability ([15]; 0.4 µM) of 0.866, a viability ([15]; 2 µM) of 0.806 and a viability ([15]; 10 µM) of 0.708. The viability ([16]; 0.016 µM) was 0.972, the viability ([16]; 0.08 µM) was 0.949 and the viability ([16]; 0.4 µM) was 0.689. It also gave a viability ([16]; 2 µM) of 0.546, a viability ([16]; 10 µM) of 0.477 and a viability ([17]; 0.016 µM) of 1.14. The viability ([17]; 0.08 µM) was 1.14, the viability ([17]; 0.4 µM) was 0.91 and the viability ([17]; 2 µM) was 0.654. For the same molecule, the viability ([17]; 10 µM) was 0.566, the viability ([18]; 0.016 µM) was 0.856 and the viability ([18]; 0.08 µM) was 0.616. It also gave a viability ([18]; 0.4 µM) of 0.266, a viability ([18]; 2 µM) of 0.2 and a viability ([18]; 10 µM) of 0.184. For the same molecule, the viability ([19]; 0.016 µM) was 1.02, the viability ([19]; 0.08 µM) was 1.01 and the viability ([19]; 0.4 µM) was 0.983. The viability ([19]; 2 µM) was 0.996 and the viability ([19]; 10 µM) was 1.02.
